According to patent publication US6355428B1, “Nucleic acid ligand interaction assays” (Genelabs Technologies, Inc., priority 1998, dated 2002):

Assays:
[1] = test system: A/T rich indicator duplex 5′-CTTTATTATTTT-3′ (SEQ ID NO: 2 and complement) versus competitor oligonucleotides; assay: Fluorescence quenching competition assay with unlabeled competitor duplexes; format: binding; details: for sequence preference from competitor oligos of Table III (FIG. 6): 0.4 μM drug, 0.4 μM unlabeled duplex competitor; for 5 bp A/T site bound most strongly / preferred (FIGS. 11, 12) / discrimination among 5 bp A/T binding sites (FIGS. 11, 12): 5 bp A+T site competitors, Table VI
Text: Direct assays, as described above, are useful for first level screening of ligand-oligonucleotide binding, e.g. preference for DNA vs. RNA, or A/T vs. C/G rich sequences. In a “next-stage” assay, termed herein a competition or competitive assay, a binding oligonucleotide for a particular ligand, such as determined from direct assays, is used as an “indicator” for competitive studies, which give a further level of detail about ligand binding preferences. A competition experiment starts with first and second indicator oligonucleotides, as described above, containing, respectively, a first group effective to produce a detectable signal, and a second group effective to alter this signal. At the beginning of the assay, the ligand is bound to a duplex of the sequences. Again, experimental conditions of temperature, salt content, etc. are preferably adjusted such that, in the absence of the ligand, the oligonucleotides would exist primarily in single-stranded form. As noted above, the preferred temperature is somewhat higher than the Tm of the duplex (in the absence of ligand) under the conditions of the assay. If desired, for the sake of convenience, conditions may be adjusted so that the assay can be carried out at or near room temperature.
At the beginning of the assay, the indicator sequences form a duplex in the presence of the ligand, so fluorescence is at a minimum for the system. (When other detection systems are used, the signal observed will be that in which the first and second groups are in close proximity.) A “competitor” sequence, having no second (e.g. quenching) group, is then added, typically as a duplex with its complementary sequence. The competing sequence tends to remove the ligand from the indicator duplex at concentrations that become lower as the affinity of the competing sequence for the ligand becomes greater. Alternatively, the competing sequence removes the ligand more effectively at concentrations equimolar with the indicator duplex as the affinity of the competing sequence for the ligand becomes greater. As the ligand is removed, the indicator sequences denature to single-stranded form, quenching is no longer effective (in an F/Q system), and fluorescence increases.
Competition Assays: Competition experiments were generally done in […] HEPES, pH 7.5, 0.1 mM EDTA and 50 mM NaCl. The drug concentration used in the competition assays depends upon the affinity of the drug for a given indicator. For the competition experiments shown, the netropsin and distamycin concentrations used were 0.4 μM. The amount of competitor oligo used was varied from 0.2 μM to 1.0 μM. The data shown is from competition experiments using 0.4 μM unlabeled duplex competitors (see Tables III-VI for the sequences of the competitor oligos).
An unlabeled competitor duplex, selected from those whose sequences are given in Table […], was added at a 0.4 μM concentration, and the change in fluorescence was noted.
Changes in fluorescence of the indicator duplex/netropsin mixture on adding each competitor oligonucleotide are given in FIG. 12.

[2] = test system: indicator oligo SEQ ID NO: 12 (mixed sequence) versus unlabeled competitor dsDNA; assay: ECL competitive assay with 12-base duplex competitor oligos; format: binding; details: competitor having only one A/T base pair; 0.008 to 8.33 μM competitor
Experimental: Three 12-base duplex competitor oligos, containing 1-, 5-, and 8-base stretches of A/T's flanked by G/C sequences, were tested as competitors, using distamycin as the binding ligand and SEQ ID NO: 12 (mixed sequence) as the indicator oligo. The indicator pair was labeled with a 5′ ruthenium chelate on one strand and a 3′biotin on the complementary strand, as described above and in Example 14.
Distamycin was premixed at […] with 0.25 nM indicator oligo. The assay was conducted as described in Example 14, using the Igen Origen® apparatus. Ligand binding, which stabilizes the duplexed form of the indicator DNA, results in an increase in the ECL signal. Unlabeled competitor dsDNA (no ruthenium or biotin label) was then added at concentrations ranging from 0.008 to 8.33 μM, and the decrease in the signal was monitored, as shown in FIG. 13.
An indicator pair of oligonucleotides, having the sequence SEQ ID NO: 12 and complement, were labeled with a 5′ ruthenium (bipy) chelate on one strand, as described in U.S. Pat. No. 5,635,347 and references cited therein, and with a 3′ biotin on the complementary strand. […] The biotinylated strand of DNA was captured on the bead surface, and any ruthenium captured by the streptavidin via drug-stabilized hybridization of the indicator duplex was quantified with the IGEN Origen™ analyzer. […]

[3] = 5′-XAATTY-3′ competitor series, Table V

Row | Compound | sequence preference from competitor oligos of Table III (FIG. 6) [1] | 5 bp A/T site bound most strongly / preferred (FIGS. 11, 12) [1] | discrimination among 5 bp A/T binding sites (FIGS. 11, 12) [1] | X and Y combinations that competed most effectively (FIG. 9) [1, 3] | sensitivity to bases at the edge of the AATT site (FIGS. 9 and 10) [1, 3] | preferred 5 bp binding site ([1]; concluded from 5′-XAATTY-3′ series) | competition by competitor oligonucleotide (FIG. 13) [2]
1 | Cn1cc(NC(=O)c2cc(NC(=O)c3cc(NC=O)cn3C)cn2C)cc1C(=O)NCCC(=N)N [Distamycin, distamycin] | strongly prefer A/T rich DNA | 5′-AATTA-3′ | relatively strong preferences | AA/TT, CA/TG, GA/TC, and TA/TA | much more sensitive | 5′-AATTA-3′ | little competition was observed
2 | Cn1cc(NC(=O)c2cc(NC(=O)CN=C(N)N)cn2C)cc1C(=O)NCCC(=N)N [Netropsin, netropsin] | strongly prefer A/T rich DNA | slight preference for the AAAAA site | considerably less discrimination | – | – | – | –
